Experimental data: the supplement of paper PMC4858399
Where a name gives a salt, the structure may show the parent alone.

Assays:
Settings in all cases: exposure time 48 h
[1] = test system: Caenorhabditis elegans N2; experiment: lowest effective concentration for larval growth inhibition (size below effect threshold); higher = less potent
Summary of the method: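 Worm size was taken as per-worm extinction on the Biosort, log-transformed and turned into well means. The larvae (C. elegans N2, L1 stage, 50 per 96-well) had spent 48 h at 20°C in K-medium with killed bacteria, 1% DMSO and 0.5, 1, 5, 10, 50, 100 or 200 µM chemical. The lowest effective concentration marks the first dose where the plate-adjusted mean size drops under a cutoff and remains under it at every higher dose; the cutoff is 5.665.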

[2] = test system: Caenorhabditis elegans N2; experiment: AC50 for larval growth inhibition (Hill fit); higher = less potent
Summary of the method: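 After 48 h at 20°C in K-medium with killed OP50, 1% DMSO and 0.5–200 µM chemical, synchronised C. elegans N2 L1 larvae (50 per well, 96-well plates) were sized individually as extinction on a COPAS Biosort. These values were log-transformed and averaged per well, and wells with fewer than 10 worms were excluded. The AC50 was derived from a constrained Hill fit by weighted genetic-algorithm regression, and out-of-range values are censored.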

[3] = test system: Caenorhabditis elegans N2; experiment: mean nematode size ln(EXT) after 48 h, plate-adjusted (DMSO control set to 6) (ln(EXT), control-adjusted); higher = larger nematodes / less growth inhibition
Summary of the method: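 Worms were measured individually for extinction on the Biosort after 48 h at 20°C. They began as synchronised C. elegans N2 L1 larvae in K-medium with killed OP50, 1% DMSO and 0.5–200 µM chemical. Once debris had been removed by a growth model, values were natural-logged and averaged per well to give mean size. The plate adjustment subtracted the vehicle control mean and added 6.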

| Compound | lowest effective concentration [1] | AC50 for larval growth inhibition [2] | mean nematode size ln(EXT) (ln) ([3]; 0.5 µM) | mean nematode size ln(EXT) (ln) ([3]; 1 µM) | mean nematode size ln(EXT) (ln) ([3]; 5 µM) | mean nematode size ln(EXT) (ln) ([3]; 10 µM) | mean nematode size ln(EXT) (ln) ([3]; 50 µM) | mean nematode size ln(EXT) (ln) ([3]; 100 µM) | mean nematode size ln(EXT) (ln) ([3]; 200 µM) |
| --- | --- | --- | --- | --- | --- | --- | --- | --- | --- |
| CC1(C)CC/C(=C\c2ccc(Cl)cc2)C1(O)Cn1cncn1 (stereo not given) [Triticonazole] | 200 µM | 120 µM | 5.82 | 5.72 | 6.07 | 5.84 | 5.91 | 5.68 | 5.25 |
| CC1=C2C[C@H]3[C@@H](CC=C4C[C@@H](O)CC[C@@]43C)[C@@H]2CC[C@]12O[C@@H]1C[C@H](C)CN[C@H]1[C@H]2C [Cyclopamine] | 200 µM | > 200 µM | 5.89 | 5.89 | 5.9 | 5.85 | 5.9 | 5.8 | 5.39 |
| c1ccc(NNc2ccccc2)cc1 [1,2-Diphenylhydrazine] | 50 µM | 78.8 µM | 5.81 | 5.72 | 5.71 | 5.69 | 5.22 | 4.11 | 3.42 |
| CC/C(=C(/CC)c1ccc(O)cc1)c1ccc(O)cc1 [Diethylstilbestrol (DES)] | 200 µM | 87 µM | 6 | 6 | 5.97 | 5.96 | 5.99 | 5.73 | 5.61 |
| c1ccc2c(c1)ccc1ccccc12 [Phenanthrene] | 10 µM | 5.56 µM | 5.95 | 5.89 | 5.84 | 3.51 | 3.73 | 4.1 | 3.29 |
| COc1nc(NC(C)C)nc(NC(C)C)n1 [Prometon] | 100 µM | > 200 µM | 5.72 | 5.83 | 5.84 | 5.75 | 5.87 | 5.61 | 5.53 |
| Cc1ccc(-c2c(Cl)nc(C#N)n2S(=O)(=O)N(C)C)cc1 [Cyazofamid] | 100 µM | 60.5 µM | 5.91 | 5.91 | 5.88 | 6.02 | 5.84 | 5.29 | 4.91 |
| c1cc2c3c(cccc3c1)CC2 [Acenaphthene] | 200 µM | > 200 µM | 6.14 | 5.74 | 6.03 | 6.08 | 5.6 | 5.77 | 5.37 |
| Clc1cc(Cl)c(Cl)cc1Cl [1,2,4,5-Tetrachlorobenzene] | 50 µM | 110 µM | 5.97 | 5.98 | 6.07 | 6.11 | 5.34 | 4.83 | 3.82 |
| Cc1ccccc1Cl [2-Chlorotoluene] | 200 µM | 178 µM | 6.08 | 6.06 | 5.92 | 6.02 | 5.98 | 6.04 | 3.3 |
| CN(C)[C@@H]1C(=O)C(C(N)=O)=C(O)[C@@]2(O)C(=O)C3=C(O)c4c(O)cccc4[C@@](C)(O)[C@H]3C[C@@H]12 [Tetracycline] | 100 µM | 103 µM | 6.03 | 6.08 | 6.03 | 6.05 | 6.06 | 5.64 | 4.89 |
| N#Cc1ccc(N(CC(N)=O)CC(F)(F)F)cc1C(F)(F)F | 200 µM | > 200 µM | 5.89 | 5.86 | 5.91 | 6 | 5.95 | 5.91 | 5.47 |
| CCN1CCC2(CC1)COc1cc3c(cc12)N(C(=O)c1ccc(-c2ccc(-c4nnc(C)o4)cc2C)cc1)CC3 | 50 µM | 52.6 µM | 5.74 | 5.82 | 5.74 | 5.84 | 5.56 | 4.06 | 4.5 |
| Cc1ncc(CO)c(CO)c1O [Pyridoxine] | 200 µM | > 200 µM | 5.84 | 5.88 | 5.86 | 5.83 | 5.87 | 5.92 | 5.63 |
| CCCOC(=O)c1ccc(C(=O)OCCC)nc1 [2,5-Pyridinedicarboxylic acid, dipropyl ester] | 200 µM | > 200 µM | 5.88 | 5.95 | 5.98 | 5.99 | 5.93 | 5.85 | 5.38 |
| Cc1ccc(-c2cc(C(F)(F)F)nn2-c2ccc(S(N)(=O)=O)cc2)cc1 [Celecoxib] | 50 µM | 30.3 µM | 5.9 | 5.92 | 5.8 | 5.81 | 4.7 | 4.53 | 4.22 |
| Clc1ccccc1C(c1ccccc1)(c1ccccc1)n1ccnc1 [Clotrimazole] | 5 µM | 18.8 µM | 5.8 | 5.74 | 5.4 | 4.95 | 3.89 | 3.9 | 3.23 |
| CN(C)c1ccc(C(=C2C=CC(=[N+](C)C)C=C2)c2ccc(N(C)C)cc2)cc1 [Hexamethyl-p-rosaniline chloride] | ≤ 0.5 µM | < 0.5 µM | 4.79 | 4.53 | 4.01 | 3.85 | 3.66 | 4.08 | 4.02 |
| N#Cc1c[nH]cc1-c1cccc2c1OC(F)(F)O2 [Fludioxonil] | 100 µM | 101 µM | 6.15 | 6.03 | 6.08 | 6.01 | 6.06 | 5.27 | 4.42 |
| CC(C)(C)c1cc(O)ccc1O [tert-Butylhydroquinone] | 50 µM | > 200 µM | 5.85 | 5.85 | 5.96 | 5.81 | 5.62 | 5.41 | 5.03 |
| Clc1nc(Cl)nc(Nc2ccccc2Cl)n1 [Anilazine] | 200 µM | > 200 µM | 6.11 | 6.01 | 6.13 | 6.11 | 5.99 | 5.78 | 5 |
| CC(=O)CC(c1ccccc1)c1c(O)c2ccccc2oc1=O (stereo not given) [Warfarin] | 200 µM | > 200 µM | 5.8 | 5.94 | 5.97 | 5.89 | 5.91 | 5.81 | 5.59 |
| ClC(Cl)=C(c1ccc(Cl)cc1)c1ccc(Cl)cc1 [p,p'-DDE] | 5 µM | 2.64 µM | 5.79 | 5.71 | 4.36 | 4.21 | 3.94 | 3.93 | 3.67 |

| Compound | lowest effective concentration [1] | AC50 for larval growth inhibition [2] | mean nematode size ln(EXT) (ln) ([3]; 0.5 µM) | mean nematode size ln(EXT) (ln) ([3]; 1 µM) | mean nematode size ln(EXT) (ln) ([3]; 5 µM) | mean nematode size ln(EXT) (ln) ([3]; 10 µM) | mean nematode size ln(EXT) (ln) ([3]; 50 µM) | mean nematode size ln(EXT) (ln) ([3]; 100 µM) | mean nematode size ln(EXT) (ln) ([3]; 200 µM) |
| --- | --- | --- | --- | --- | --- | --- | --- | --- | --- |
| CC(C)(O)c1coc(S(=O)(=O)NC(=O)Nc2c3c(cc4c2CCC4)CCC3)c1 | 200 µM | 111 µM | 5.93 | 6.15 | 6.24 | 6.2 | 6.09 | 5.98 | 5.63 |
| CC(C)(OO)c1ccccc1 [Cumene hydroperoxide] | 200 µM | > 200 µM | 5.92 | 5.91 | 5.94 | 5.75 | 5.88 | 5.75 | 5.62 |
| CN1CCN(c2ccccc2/C=C2\SCCN(c3ccc(Cl)c(Cl)c3)C2=O)CC1 [Elzasonan] | 10 µM | 62.7 µM | 5.89 | 5.8 | 5.84 | 5.58 | 4.76 | 4.27 | 3.67 |
| O=C(O)C(F)(F)C(F)(F)C(F)(F)C(F)(F)C(F)(F)C(F)(F)C(F)(F)F [Perfluorooctanoic acid] | 100 µM | 60.2 µM | 6 | 6 | 5.94 | 6.02 | 5.75 | 5.24 | 5.31 |
| COc1cc(OC)nc(NC(=O)NS(=O)(=O)c2ncccc2OCC(F)(F)F)n1 [Trifloxysulfuron-sodium] | 200 µM | 196 µM | 5.81 | 5.77 | 6.02 | 5.88 | 5.9 | 5.97 | 5.51 |
| O=c1c(-c2ccc(O)cc2)coc2cc(O)cc(O)c12 [Genistein] | 200 µM | > 200 µM | 5.88 | 5.89 | 5.92 | 5.85 | 5.89 | 5.89 | 5.53 |
| CCCSP(=O)(OCC)Oc1ccc(Br)cc1Cl (stereo not given) [Profenofos] | 50 µM | 56.4 µM | 5.75 | 6.26 | 6.17 | 6.04 | 4.95 | 3.31 | 3.04 |
| Oc1ccc(Cl)cc1Cc1ccccc1 [Clorophene] | 50 µM | 92 µM | 5.89 | 5.87 | 5.83 | 5.73 | 5.15 | 4.62 | 3.79 |
| C=CCOC(Cn1ccnc1)c1ccc(Cl)cc1Cl (stereo not given) [Imazalil] | 200 µM | > 200 µM | 5.91 | 6.17 | 6.07 | 5.99 | 5.83 | 5.74 | 4.6 |
| CON(C)C(=O)Nc1ccc(Cl)c(Cl)c1 [Linuron] | 100 µM | 104 µM | 6.04 | 6.22 | 6.19 | 5.98 | 6.16 | 5.57 | 4.43 |
| Nc1ccc(S(=O)(=O)c2ccc(N)cc2)cc1 [4-Aminophenyl sulfone] | 200 µM | > 200 µM | 5.93 | 5.92 | 5.94 | 5.86 | 5.83 | 5.8 | 5.56 |
| CC(C)(c1ccc(O)cc1)c1ccc(O)cc1 [Bisphenol A] | 200 µM | > 200 µM | 5.83 | 5.86 | 5.99 | 5.88 | 5.95 | 5.96 | 5.46 |
| CC(C)Nc1nc(Cl)nc(NC(C)C)n1 [Propazine] | 200 µM | 102 µM | 5.99 | 6.05 | 6.03 | 6.09 | 6.04 | 5.83 | 5.55 |
| ClC1=C(Cl)C2(Cl)C3C(Cl)C=CC3C1(Cl)C2(Cl)Cl (stereo not given) [Heptachlor] | 5 µM | 6.11 µM | 5.7 | 5.98 | 5.24 | 4.13 | 4.03 | 3.97 | 3.44 |
| O=S(=O)(O)C(F)(F)C(F)(F)C(F)(F)C(F)(F)C(F)(F)C(F)(F)C(F)(F)C(F)(F)F [Heptadecafluorooctanesulfonic acid potassium salt] | ≤ 0.5 µM | 11.4 µM | 5.46 | 5.57 | 5.12 | 4.63 | 3.8 | 3.62 | 3.47 |
| Oc1ccc(C(c2ccc(O)cc2)C(Cl)(Cl)Cl)cc1 [2,2-Bis(4-hydroxyphenyl)-1,1,1-trichloroethane (HPTE)] | 50 µM | 66.9 µM | 6.16 | 6.15 | 6.1 | 6.01 | 5.25 | 4.61 | 4.12 |
| c1ccc2c(c1)Cc1ccccc1-2 [Diphenylenemethane] | 50 µM | 39.2 µM | 6.07 | 6.06 | 6.03 | 5.92 | 4.4 | 4.02 | 3.5 |
| CN(C)C(=O)Nc1ccc(Cl)cc1 [Monuron] | 200 µM | > 200 µM | 5.99 | 6 | 5.94 | 5.98 | 5.86 | 5.79 | 5.34 |
| CCN(Cc1cccnc1)C(=O)c1cccc(Cl)c1[C@]1(C)C(=O)N(Cc2ccc(OC)cc2OC)c2ccc(Cl)cc21 | 10 µM | 3.78 µM | 5.85 | 5.78 | 5.8 | 5.4 | 5.54 | 5.37 | 5.39 |
| CCCCCCCCCCCC[N+](C)(C)C [Dodecyl trimethyl ammonium chloride] | 100 µM | 199 µM | 5.76 | 6.02 | 5.88 | 5.9 | 5.76 | 5.65 | 4.53 |
| Cc1cc2c3c(c1)C(c1ccccc1)=N[C@@H](NC(=O)c1ccncc1)C(=O)N3CC2 | 200 µM | > 200 µM | 5.86 | 5.88 | 5.88 | 5.88 | 5.9 | 5.83 | 5.23 |
| CNC(=O)Oc1cccc(/N=C/N(C)C)c1 [Formetanate hydrochloride] | 100 µM | 62.8 µM | 5.85 | 6.01 | 6 | 5.93 | 5.73 | 5.59 | 5.47 |
